Results as given in patent US5925529A, “Method for discovery of peptide agonists” (The Regents of the University of California, priority 1995, dated 1999).
“Also recorded” adds a separate entry of the source.

Key:
formyl peptide receptor = settings: compared with f-MLF; cited from earlier work
Human fMLF receptor = biological target: T1, Human fMLF receptor (Homo sapiens, UniProt P21462); test: Agonist-induced 45Ca release from Xenopus oocytes expressing the formyl peptide receptor; assay type: cell-based; settings: Xenopus oocytes injected with human fMLF receptor cRNA; compared with fMLF (FIG. 2)
T1 construct: expressed in transfected cells; host or cells: Xenopus laevis oocytes microinjected with cRNA
T1 sequence (P21462 1-350): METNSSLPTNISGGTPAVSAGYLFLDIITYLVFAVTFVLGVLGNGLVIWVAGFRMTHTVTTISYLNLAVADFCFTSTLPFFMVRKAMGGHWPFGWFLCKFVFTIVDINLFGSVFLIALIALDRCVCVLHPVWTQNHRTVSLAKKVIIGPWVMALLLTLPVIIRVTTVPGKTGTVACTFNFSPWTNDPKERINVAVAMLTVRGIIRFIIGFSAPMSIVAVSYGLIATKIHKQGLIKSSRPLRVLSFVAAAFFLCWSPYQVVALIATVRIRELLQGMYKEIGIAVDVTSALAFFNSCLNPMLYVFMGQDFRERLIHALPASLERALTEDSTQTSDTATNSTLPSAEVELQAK
Experimental: Xenopus oocytes were harvested from female Xenopus laevis and processed using published techniques. Coleman, A., In Transcription and Translation: A Practical Approach, Oxford: IRL Press, pp. 271-302 (1984); Williams et al., PNAS 85: 4939-4943 (1988). To remove follicular cells, oocytes were incubated for 4 hr at room temperature with 1 mg/ml Sigma type II collagenase in modified Barth's solution (MBSH) without Ca^2+, then washed and incubated overnight at 18° C. in MBSH II (MBSH containing 1 mg/ml bovine serum albumin, 1 ml/ml Ficoll, 100 U/ml penicillin, 100 μg/ml streptomycin, and 50 μg/ml gentamicin). […]
(§1) Agonist-induced increases in ^45 Ca^2+ release were assessed by published techniques. […] The harvested medium was analyzed by scintillation counting to determine ^45 Ca^2+ release by the oocytes during each 10 min incubation. […] At this point, two additional 10 min collections were obtained, then medium including agonist was added and agonist-induced ^45 Ca^2+ release determined.
Formyl peptide receptor response to its classical agonist fMLF (SEQ ID NO:12) and to the new agonist derived from tethered ligand library. […] Xenopus oocytes were microinjected with 5 ng cRNA transcribed from this construct, cultured for 24 hours, and ^45 Ca release in response to the indicated concentration of peptides was measured as described above.

[1] = biological target: T2, wild type human thrombin receptor (Homo sapiens, UniProt P25116); test: Agonist-induced 45Ca release from Xenopus oocytes expressing the wild type thrombin receptor; assay type: cell-based; settings: Xenopus oocytes expressing epitope tagged wild type human thrombin receptor; compared with SFLLR peptide (FIG. 5A)
T2 construct: expressed in transfected cells; host or cells: Xenopus laevis oocytes (cRNA)
T2 sequence (P25116 22-425): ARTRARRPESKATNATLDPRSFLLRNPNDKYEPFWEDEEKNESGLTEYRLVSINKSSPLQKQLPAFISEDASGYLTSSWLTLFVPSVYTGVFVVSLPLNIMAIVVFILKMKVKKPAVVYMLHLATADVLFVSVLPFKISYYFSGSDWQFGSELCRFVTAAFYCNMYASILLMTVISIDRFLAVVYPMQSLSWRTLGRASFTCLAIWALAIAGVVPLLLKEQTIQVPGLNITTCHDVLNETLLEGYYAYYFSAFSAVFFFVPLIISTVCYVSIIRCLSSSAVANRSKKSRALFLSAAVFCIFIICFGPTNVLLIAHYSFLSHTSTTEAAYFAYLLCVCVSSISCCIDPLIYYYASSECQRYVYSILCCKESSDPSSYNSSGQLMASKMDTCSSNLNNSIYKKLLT
Experimental: (§2) Xenopus oocytes were harvested from female Xenopus laevis and processed using published techniques. Coleman, A., In Transcription and Translation: A Practical Approach, Oxford: IRL Press, pp. 271-302 (1984); Williams et al., PNAS 85: 4939-4943 (1988). To remove follicular cells, oocytes were incubated for 4 hr at room temperature with 1 mg/ml Sigma type II collagenase in modified Barth's solution (MBSH) without Ca^2+, then washed and incubated overnight at 18° C. in MBSH II (MBSH containing 1 mg/ml bovine serum albumin, 1 ml/ml Ficoll, 100 U/ml penicillin, 100 μg/ml streptomycin, and 50 μg/ml gentamicin). Dumont stage V oocytes were selected and microinjected with 5 to 50 nl of mRNA (1 μg/μl in 10 mM HEPES, pH 7.0). Microinjected oocytes were cultured for 24 hr at 18° C. in MBSH then selected for functional assays.
as §1, with “techniques. Williams et al., PNAS 85:4939-4943 (1988).” for “techniques.”, “determined. […]” for “determined.”

uninjected oocytes = test: 45Ca release in uninjected Xenopus oocytes (control for receptor dependence); assay type: cell-based, Xenopus laevis
Experimental: as §2
as §1, with “techniques. Williams et al., PNAS 85:4939-4943 (1988).” for “techniques.”, “determined. […]” for “determined.”

| Substance | activity of the unformylated peptide relative to f-MLF (fold less activity) (formyl peptide receptor) | agonist activity / signaling (45Ca release) at the formyl peptide receptor (Human fMLF receptor) | agonist activity / signaling (45Ca release) at the thrombin receptor [1] | signaling (45Ca release) in uninjected oocytes (uninjected oocytes) |
| --- | --- | --- | --- | --- |
| MLF | at least 1000 fold |  |  |  |
| GFIYF |  | did not cause signaling | nearly as effective as the SFLLR; also recorded: receptor-dependent | did not cause signaling |
